Data published in publication PMC9312188, “Antioxidant Activity Evaluation and Assessment of the Binding Affinity to HSA of a New Catechol Hydrazinyl-Thiazole Derivative” (Antioxidants, 2022).

Biological target: T1, human serum albumin (HSA) (Homo sapiens, UniProt P02768)
T1 construct: gene ALB; commercial HSA from Sigma-Aldrich, full mature protein, untagged, monomeric
Assay: isothermal titration calorimetry, independent binding model
Conditions: read-out: Ka (converted)

T1 sequence (P02768 25-609): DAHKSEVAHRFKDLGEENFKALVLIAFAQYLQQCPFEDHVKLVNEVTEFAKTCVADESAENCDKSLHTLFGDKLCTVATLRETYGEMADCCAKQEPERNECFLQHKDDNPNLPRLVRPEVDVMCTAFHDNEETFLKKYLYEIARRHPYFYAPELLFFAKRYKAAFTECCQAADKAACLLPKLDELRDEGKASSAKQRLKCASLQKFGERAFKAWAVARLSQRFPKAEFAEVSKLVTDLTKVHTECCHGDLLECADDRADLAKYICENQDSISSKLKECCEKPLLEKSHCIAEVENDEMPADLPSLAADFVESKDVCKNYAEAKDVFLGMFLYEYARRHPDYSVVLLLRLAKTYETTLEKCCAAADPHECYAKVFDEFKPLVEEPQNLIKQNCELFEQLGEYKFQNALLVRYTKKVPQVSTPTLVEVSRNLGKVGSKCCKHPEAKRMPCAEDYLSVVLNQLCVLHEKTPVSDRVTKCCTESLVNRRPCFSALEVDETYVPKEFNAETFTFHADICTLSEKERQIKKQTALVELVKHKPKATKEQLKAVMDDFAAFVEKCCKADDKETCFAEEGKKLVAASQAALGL

Cc1csc(N/N=C/c2ccc(O)c(O)c2)n1 [compound 5, (E)-2-(3,4-dihydroxybenzylidene)-1-(4-methylthiazol-2-yl)hydrazin-1-ium chloride]
Kd: 140 µM
